In ChEMBL document CHEMBL5576065, “Identification of highly potent and selective HTRA1 inhibitors” (Bioorg Med Chem Lett, 2024):
Active and inactive are the calls of the source. The calls are words filed in the database; no cut-off is given here. Square brackets hold non-standard residues; d marks the D form. Peptide text beside a SMILES is read from it. * marks the point of attachment. hMet = CSCCC[C@H](N)C(=O)O; X1 = CC(C)[C@H](N*)B(O)O

Key:
[1] = target: T1, Serine protease HTRA1 (Homo sapiens, UniProt Q92743); experiment: Inhibition of HTRA1 (unknown origin)
[2] = target: Chymotrypsin (Homo sapiens) (UniProt Q99895+P17538+P40313+Q6GPI1); experiment: Inhibition of chymotrypsin (unknown origin) at 1 uM; format: protein assay
[3] = target: T2, Caspase-6 (Homo sapiens) (UniProt P55212); experiment: Inhibition of Caspase-6 (unknown origin) at 1 uM
T2 sequence (whole entry): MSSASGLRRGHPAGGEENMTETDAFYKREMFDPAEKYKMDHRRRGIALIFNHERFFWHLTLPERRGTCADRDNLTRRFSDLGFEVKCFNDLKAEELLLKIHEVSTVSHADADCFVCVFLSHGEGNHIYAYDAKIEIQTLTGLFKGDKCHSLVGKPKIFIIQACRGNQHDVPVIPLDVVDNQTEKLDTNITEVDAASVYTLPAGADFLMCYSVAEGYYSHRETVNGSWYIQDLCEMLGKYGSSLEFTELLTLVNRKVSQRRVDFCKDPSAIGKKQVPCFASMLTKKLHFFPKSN

[4] = target: T1, Serine protease HTRA1; experiment: Inhibition of HTRA1 (unknown origin) assessed as residual activity at 1 uM relative to control
[5] = target: Kallikrein-7 (Homo sapiens) (UniProt P49862); experiment: Inhibition of kallikrein-7 (unknown origin) at 1 uM
[6] = target: T3, Caspase-9 (Homo sapiens) (UniProt P55211); experiment: Inhibition of Caspase-9 (unknown origin) at 1 uM
T3 sequence (whole entry): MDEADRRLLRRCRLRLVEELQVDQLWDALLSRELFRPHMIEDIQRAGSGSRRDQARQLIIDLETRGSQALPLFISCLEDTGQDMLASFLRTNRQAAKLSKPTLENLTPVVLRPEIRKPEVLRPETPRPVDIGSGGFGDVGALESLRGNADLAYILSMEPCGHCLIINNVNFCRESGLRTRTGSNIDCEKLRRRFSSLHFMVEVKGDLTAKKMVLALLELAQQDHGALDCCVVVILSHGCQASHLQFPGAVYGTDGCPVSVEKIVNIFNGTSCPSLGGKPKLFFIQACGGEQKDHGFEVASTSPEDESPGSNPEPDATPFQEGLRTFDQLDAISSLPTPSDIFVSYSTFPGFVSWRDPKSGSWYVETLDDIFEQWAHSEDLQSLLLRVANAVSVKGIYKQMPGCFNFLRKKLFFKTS

T1 sequence (Q92743 whole entry): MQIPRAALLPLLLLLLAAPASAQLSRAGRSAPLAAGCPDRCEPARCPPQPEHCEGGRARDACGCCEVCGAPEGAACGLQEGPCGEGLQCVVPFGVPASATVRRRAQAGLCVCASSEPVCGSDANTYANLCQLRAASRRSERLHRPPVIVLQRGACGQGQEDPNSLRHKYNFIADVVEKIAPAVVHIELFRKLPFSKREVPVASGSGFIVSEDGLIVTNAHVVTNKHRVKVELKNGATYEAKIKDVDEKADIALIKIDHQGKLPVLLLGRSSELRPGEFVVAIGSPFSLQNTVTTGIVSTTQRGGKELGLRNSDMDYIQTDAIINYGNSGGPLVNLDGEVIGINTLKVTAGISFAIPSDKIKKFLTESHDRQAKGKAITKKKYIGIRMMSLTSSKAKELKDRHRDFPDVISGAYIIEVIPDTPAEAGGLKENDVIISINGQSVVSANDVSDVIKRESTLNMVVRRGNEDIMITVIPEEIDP
Sequence of Kallikrein-7 (Homo sapiens) (P49862 30-253 limits assumed): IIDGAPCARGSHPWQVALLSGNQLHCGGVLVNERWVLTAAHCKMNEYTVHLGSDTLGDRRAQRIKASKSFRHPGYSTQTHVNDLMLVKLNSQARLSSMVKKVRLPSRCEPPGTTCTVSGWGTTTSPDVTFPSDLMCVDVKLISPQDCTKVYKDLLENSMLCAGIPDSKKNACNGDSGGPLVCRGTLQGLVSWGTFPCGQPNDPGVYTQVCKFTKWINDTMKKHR

Compound | IC50 [1] [nM] | further results
CC(C)C[C@H](NC(=O)[C@H](CC1CCCCC1)NC(=O)OCc1ccccc1)C(=O)N[C@H](B(O)O)C(C)C | 466 | 
CC(C)C[C@H](NC(=O)[C@H](Cc1cccc(Cl)c1)NC(=O)C(C)(C)Cc1ccccc1)C(=O)N[C@H](B(O)O)C(C)C | 11 | 
CC(C)C[C@H](NC(=O)[C@H](Cc1ccccc1)NC(=O)OCc1ccccc1)C(=O)N[C@H](B(O)O)C(C)C | 411 | 
CC(C)C[C@H](NC(=O)[C@H](Cc1cccc(Cl)c1)NC(=O)CCc1ccccc1)C(=O)N[C@H](B(O)O)C(C)C | 104 | 
CC(C)C[C@H](NC(=O)[C@H](CCCCN)NC(=O)OCc1ccccc1)C(=O)N[C@H](B(O)O)C(C)C | 15300 | 
CC(C)C[C@H](NC(=O)[C@H](Cc1cccc(Cl)c1)NC(=O)OCc1ccccc1)C(=O)N[C@H](B(O)O)C(C)C | 10 | inhibition [2]: inactive; inhibition [3]: inactive; Activity [4]: 0%; inhibition [5]: inactive; inhibition [6]: inactive
CC(C)C[C@H](NC(=O)[C@H](Cc1ccc(Cl)cc1)NC(=O)OCc1ccccc1)C(=O)N[C@H](B(O)O)C(C)C | 73 | 
CC(C)C[C@H](NC(=O)[C@H](Cc1ccc[n+]([O-])c1)NC(=O)OCc1ccccc1)C(=O)N[C@H](B(O)O)C(C)C | 654 | 
CC(C)C[C@H](NC(=O)[C@H](Cc1cccc(Cl)c1)NCCCc1ccccc1)C(=O)N[C@H](B(O)O)C(C)C | 4900 | 
CC(C)C[C@H](NC(=O)[C@H](Cc1cccc(Cl)c1)NC(=O)C(C)(C)Cc1ccccc1)C(=O)N[C@H](B(O)O)C1CCC1 | 13 | inhibition [2]: inactive; inhibition [3]: inactive; Activity [4]: 0%; inhibition [5]: inactive; inhibition [6]: inactive
CC(C)C[C@H](NC(=O)[C@H](Cc1cc[n+]([O-])cc1)NC(=O)OCc1ccccc1)C(=O)N[C@H](B(O)O)C(C)C | 1540 | 
CC(C)C[C@H](NC(=O)[C@H](Cc1cccc(Cl)c1)NC(=O)NCc1ccccc1)C(=O)N[C@H](B(O)O)C(C)C | 495 | 
CSCCC[C@H](NC(=O)[C@@H]1CCCN1C(=O)[C@@H](N)CC(=O)O)C(=O)N[C@@H](Cc1ccccc1)C(=O)N[C@@H](CCCCN)C(=O)N[C@@H](CC(C)C)C(=O)N[C@H](B(O)O)C(C)C (H-DP[hMet]FKL-X1) | 2600 | 
CC(C)C[C@H](NC(=O)[C@H](Cc1cccc(Br)c1)NC(=O)OCc1ccccc1)C(=O)N[C@H](B(O)O)C(C)C | 17 | 
CC(C)C[C@H](NC(=O)[C@H](Cc1cccc(F)c1)NC(=O)OCc1ccccc1)C(=O)N[C@H](B(O)O)C(C)C | 88 | 
CCCCC[C@H](NC(=O)OCc1ccccc1)C(=O)N[C@@H](CC(C)C)C(=O)N[C@H](B(O)O)C(C)C | 1920 | 
Cc1cccc(C[C@H](NC(=O)OCc2ccccc2)C(=O)N[C@@H](CC(C)C)C(=O)N[C@H](B(O)O)C(C)C)c1 | 45 | 
